This is an account of results in patent publication US20140024662A1, “COMPOUNDS, SCREENS, AND METHODS OF TREATMENT” (Shanghai Institute of Organic Chemistry, priority 2006, published 2014).

For the assay, the system named is FADD-deficient Jurkat cells. The assay is described as follows: necroptosis assay: FADD-deficient Jurkat cells treated with TNFα, cell viability. It is filed as cell-based, human. The following applies: for activity in the necroptosis assay, in words / Max Prot: FADD-deficient Jurkat cells treated with TNFα; for EC50: effective concentration for half-maximum response, inhibition of necroptosis in FADD-deficient Jurkat cells treated with TNFα; for Max Prot: max viability obtained in the presence of a compound. An excerpt: Herein we describe the structure activity analysis of Nec-5 analogs.

“Also recorded” adds a separate entry of the source. Where two headings read alike, the source gives them in different places.

A word on the EC50: it is the midpoint of the concentration-response curve. `COc1ccc(-n2c(SCC#N)nc3sc(C(C)C)c(C)c3c2=O)cc1` [Compound 70]: the “activity in the necroptosis assay, in words” value (shortened to “activity … in words”) was “inactive” and the EC50 result was “inactive”.

Regarding `N#CCSc1nc2sc3c(c2c(=O)n1-c1ccc(F)cc1)CCCCC3` [Compound 122], the “activity … in words” value is “completely lacked activity” and the EC50 entry is “inactive”. Take `COc1ccc(-n2c(SCC#N)nc3sc4ccccc4c3c2=O)cc1` [Compound 76]: the “activity … in words” value is “retained most of the activity; also recorded: showed substantial activity; also recorded: showed good activity; also recorded: potent inhibitor; also recorded: exhibited a certain degree of activity” and the “Max Prot” value turned out to be 83.3%. In addition, for the setting “read-out: EC50”, the EC50 was 180 nM.

On to `CSc1nc2sc3ccccc3c2c(=O)n1-c1ccc(OC(F)(F)F)cc1` [Compound 153], for which the EC50 entry was “inactive”. Consider `C=CCSc1nc2sc3c(c2c(=O)n1-c1ccc(OC)cc1)CCCC3` [Compound 12], for which the 50% effective concentration (EC50) entry is “inactive”. For `C#CCSc1nc2sc3c(c2c(=O)n1-c1ccc(OC)cc1)CCCCC3` [Compound 109], the EC50 result is “inactive”. On to `N#CCSc1nc2sc3c(c2c(=O)n1-c1ccc2c(c1)OCO2)CCC3` [Compound 129], for which the “Max Prot” value is 100%. The EC50 (read-out: EC50) came out at 1180 nM. For `COC(=O)CSc1nc2sc3c(c2c(=O)n1-c1ccc(OC)cc1)CCCC3` [Compound 19], the “activity … in words” value was “completely destroyed the activity” and the EC50 entry is “inactive”. For `COc1ccc(-n2c(SCCO)nc3sc(C)c(C)c3c2=O)cc1` [Compound 114], the “activity … in words” value was “possess some activity” and the “Max Prot” value stood at 78%. Further, where the note is “read-out: EC50”, the EC50 stood at 7260 nM. As for `COc1ccc(-n2c(S(C)(=O)=O)nc3sc4c(c3c2=O)CCCC4)cc1` [Compound 31], the “activity … in words” value was “complete loss of activity” and the EC50 result is “inactive”. Regarding `N#CCSc1nc2sc3ccccc3c2c(=O)n1-c1ccc2c(c1)OCO2` [Compound 146], the “activity … in words” value was “potent inhibitor” and the “Max Prot” value is listed as 100%. Also, the EC50 (read-out: EC50) stood at 270 nM. Turning to `COc1ccc(-n2c(SCC(C)=O)nc3sc4c(c3c2=O)CCCC4)cc1` [Compound 18], the EC50 result was “inactive”. Consider `C=CCSc1nc2sc3c(c2c(=O)n1-c1ccc(OC)cc1)CCC3` [Compound 97], for which the EC50 entry was “inactive”. With `CN(C)c1ccc(-n2c(SCC#N)nc3sc4ccccc4c3c2=O)cc1` [Compound 148], the EC50 result is “inactive” and the “Max Prot” value was “inactive”. In the case of `CCc1c(C)sc2nc(SCCO)n(-c3ccc4c(c3)OCO4)c(=O)c12` [Compound 180], the EC50 entry is “inactive”.

As to `CCCCSc1nc2sc3c(c2c(=O)n1-c1ccc(OC)cc1)CCCC3` [Compound 9], the EC50 result was “inactive”. The same measure, in the same setting: then `CCSc1nc2sc3c(c2c(=O)n1-c1ccccc1)CCCCC3` [Compound 175], with “inactive”; and `CCc1sc2nc(SC)n(-c3ccc(OC)cc3)c(=O)c2c1C` [Compound 83], with “inactive”; and `COc1ccc(-n2c(SCC#N)nc3sc(C)cc3c2=O)cc1` [Compound 64], with “inactive”. For `COc1ccc(-n2c(SC)nc3sc4c(c3c2=O)CCCC4)cc1OC` [Compound 58], the “activity … in words” value was “showed some activity” and the “Max Prot” value is 54.5%. The EC50 (read-out: EC50) turned out to be 16700 nM. On the same counts, the results for `N#CCCSc1nc2sc3c(c2c(=O)n1-c1ccc2c(c1)OCO2)CCCC3` [Compound 48, 3-(3′,4′)-methylene-dioxyphenyl-5,6-tetramethylenothieno[2,3-d]pyrimidin-4-one-2-mercaptoethylcyanide] are “showed good activity; also recorded: showed substantial activity; also recorded: showed significant activity”, 100% and 890 nM. Regarding `C#CCSc1nc2scc(C)c2c(=O)n1-c1ccc(OC)cc1` [Compound 105], the EC50 result is “inactive”. In the case of `COc1ccc(-n2c(SC(=O)c3ccccc3)nc3sc4c(c3c2=O)CCCC4)cc1` [Compound 23], the EC50 result is “inactive”. The same measure, in the same setting: then `C#CCSc1nc2sc(C)c(CC)c2c(=O)n1-c1ccc2c(c1)OCO2` [Compound 177], with “inactive”. As for `COc1ccc(-n2c(SC)nc3sc4ccccc4c3c2=O)cc1` [Compound 90], the “activity … in words” value is “potent inhibitor” and the “Max Prot” value is 77%. The EC50 (read-out: EC50) worked out at 240 nM. Regarding `N#CCSc1nc2sc3c(c2c(=O)n1-c1ccc2c(c1)OCCO2)CCCC3` [Compound 134], the “Max Prot” value is on record as 100%. For the same molecule, the EC50 (read-out: EC50) was determined as 220 nM. `CCOc1ccc(-n2c(SC)nc3sc4c(c3c2=O)CCC4)cc1` [Compound 178]: the EC50 entry is “inactive”. Still for that read-out and setting: then `O=c1c2c3c(sc2nc(SCc2ccccc2)n1-c1ccccc1)CCCC3` [Compound 171], with “inactive”. For the molecule `COc1ccc(-n2c(SCC#N)nc3sc4c(c3c2=O)CCCC4)c(OC)c1` [Compound 46], the “activity … in words” value is on record as “eliminated activity” and the EC50 result was “inactive”. Regarding `COc1ccc(-n2c(SCCl)nc3sc4c(c3c2=O)CCCC4)cc1` [Compound 25], the “activity … in words” value is “exhibited some activity” and the “Max Prot” value is 85%. Also, the EC50 (read-out: EC50) amounted to 2220 nM. As for `COc1cccc(-n2c(SCC#N)nc3sc4c(c3c2=O)CCCC4)c1` [Compound 34], the “Max Prot” value came to 87.7%. The EC50 (read-out: EC50) turned out to be 1460 nM.

On to `COc1ccc(-n2c(SC)nc3sccc3c2=O)cc1` [Compound 79], for which the EC50 entry was “inactive”.

On to `N#CCSc1nc2sc3c(c2c(=O)n1-c1ccc(Br)cc1)CCCC3` [Compound 42], for which the “activity … in words” value is “activity significantly decreased” and the EC50 result was “inactive”.

As to `CCSc1nc2sc3c(c2c(=O)n1-c1ccc(OC)cc1)CCCCC3` [Compound 112], the EC50 result is “inactive”.

`COc1ccc(-n2c(SCC#N)nc3scc(C)c3c2=O)cc1` [Compound 66]: the EC50 entry is “inactive”. For `COc1ccc(-n2c(SCC#N)nc3sc4c(c3c2=O)CCCC4)cc1OC` [Compound 47], the “Max Prot” value came out at 57.0%. Besides, under “read-out: EC50”, the EC50 is 5700 nM.

As to `CSc1nc2sc(C)c(C)c2c(=O)n1-c1ccc(OCc2ccccc2)cc1` [Compound 159], the EC50 result is “inactive”. Consider `N#CCSc1nc2sc3ccccc3c2c(=O)n1-c1ccc2c(c1)OCCO2` [Compound 135], for which the “Max Prot” value is recorded as 100%. Also, the “increase in activity versus para-methoxy” value (R5 ethylene dioxy compared with para-methoxy) is around 2 fold. The EC50 (read-out: EC50) was found to be 150 nM.

As to `COc1ccc(-n2c(SCC(=O)O)nc3sc(C)c(C)c3c2=O)cc1` [Compound 118], the EC50 entry is “inactive”. With `CSc1ccc(-n2c(SCC#N)nc3sc4c(c3c2=O)CCCC4)cc1` [Compound 49], the “Max Prot” value is given as 70.0%. The EC50 (read-out: EC50) is 2330 nM.

With `N#CCSc1nc2sc3c(c2c(=O)n1-c1ccccc1)CCC3` [Compound 163], the EC50 result was “inactive”.
